The numbers were not newly measured in patent US20230111712A1, “STABLE REACTIVE COMPOSITIONS FOR BIOCONJUGATION, PROBES, AND PROTEIN LABELING” (ARIZONA BOARD OF REGENTS ON BEHALF OF THE UNIVERSITY OF …, priority 2020, published 2023), which cites them from elsewhere.

Usually pKa stands for the negative logarithm of the acid dissociation constant.

For the series the following is noted: reported value.

With `CCCN` [propyl ammonium, propyl amine], the pKa is recorded as 10.5.
